According to ChEMBL document CHEMBL5154747, “Discovery of new carbonic anhydrase IX inhibitors as anticancer agents by toning the hydrophobic and hydrophilic rims of the active site to encounter the dual-tail approach” (Eur J Med Chem, 2022):

How the values were obtained:
SNB-19 = experiment: Anticancer activity against human SNB-19 cells assessed as cell growth inhibition at 10 uM incubated for 48 hrs by SRB assay relative to control; type: functional; details: read-out: GI
SF-268 = experiment: Anticancer activity against human SF-268 cells assessed as cell growth inhibition at 10 uM incubated for 48 hrs by SRB assay relative to control; type: functional; details: read-out: GI
K562 = experiment: Anticancer activity against human K562 cells assessed as cell growth inhibition at 10 uM incubated for 48 hrs by SRB assay relative to control; type: functional; details: read-out: GI
OVCAR-3 = experiment: Anticancer activity against human OVCAR-3 cells assessed as cell growth inhibition at 10 uM incubated for 48 hrs by SRB assay relative to control; type: functional; details: read-out: GI
HOP-92 = experiment: Anticancer activity against human HOP-92 cells assessed as cell growth inhibition at 10 uM incubated for 48 hrs by SRB assay relative to control; type: functional; details: read-out: GI
PC-3 = experiment: Anticancer activity against human PC-3 cells assessed as cell growth inhibition at 10 uM incubated for 48 hrs by SRB assay relative to control; type: functional; details: read-out: GI
TK-10 = experiment: Anticancer activity against human TK-10 cells assessed as cell growth inhibition at 10 uM incubated for 48 hrs by SRB assay relative to control; type: functional; details: read-out: GI
EKVX = experiment: Anticancer activity against human EKVX cells assessed as cell growth inhibition at 10 uM incubated for 48 hrs by SRB assay relative to control; type: functional; details: read-out: GI
HCT-15 = experiment: Anticancer activity against human HCT-15 cells assessed as cell growth inhibition at 10 uM incubated for 48 hrs by SRB assay relative to control; type: functional; details: read-out: GI
HT-29 = experiment: Anticancer activity against human HT-29 cells assessed as cell growth inhibition at 10 uM incubated for 48 hrs by SRB assay relative to control; type: functional; details: read-out: GI
SK-MEL-5 = experiment: Anticancer activity against human SK-MEL-5 cells assessed as cell growth inhibition at 10 uM incubated for 48 hrs by SRB assay relative to control; type: functional; details: read-out: GI
RPMI-8226 = experiment: Anticancer activity against human RPMI-8226 cells assessed as cell growth inhibition at 10 uM incubated for 48 hrs by SRB assay relative to control; type: functional; details: read-out: GI
SF-539 = experiment: Anticancer activity against human SF-539 cells assessed as cell growth inhibition at 10 uM incubated for 48 hrs by SRB assay relative to control; type: functional; details: read-out: GI
Carbonic anhydrase 9 = Carbonic anhydrase 9 (Homo sapiens, UniProt Q16790); experiment: Inhibition of recombinant human CA 9 preincubated for 15 mins by phenol red dye based stopped flow CO2 hydration assay
MOLT-4 = experiment: Anticancer activity against human MOLT-4 cells assessed as cell growth inhibition at 10 uM incubated for 48 hrs by SRB assay relative to control; type: functional; details: read-out: GI
UO-31 = experiment: Anticancer activity against human UO-31 cells assessed as cell growth inhibition at 10 uM incubated for 48 hrs by SRB assay relative to control; type: functional; details: read-out: GI
T47D = experiment: Anticancer activity against human T47D cells assessed as cell growth inhibition at 10 uM incubated for 48 hrs by SRB assay relative to control; type: functional; details: read-out: GI
A498 = experiment: Anticancer activity against human A498 cells assessed as cell growth inhibition at 10 uM incubated for 48 hrs by SRB assay relative to control; type: functional; details: read-out: GI
OVCAR-5 = experiment: Anticancer activity against human OVCAR-5 cells assessed as cell growth inhibition at 10 uM incubated for 48 hrs by SRB assay relative to control; type: functional; details: read-out: GI
COLO 205 = experiment: Anticancer activity against human COLO 205 cells assessed as cell growth inhibition at 10 uM incubated for 48 hrs by SRB assay relative to control; type: functional; details: read-out: GI
LOX IMVI = experiment: Anticancer activity against human LOX IMVI cells assessed as cell growth inhibition at 10 uM incubated for 48 hrs by SRB assay relative to control; type: functional; details: read-out: GI
A549 = experiment: Anticancer activity against human A549 cells assessed as cell growth inhibition at 10 uM incubated for 48 hrs by SRB assay relative to control; type: functional; details: read-out: GI
NCI-H460 = experiment: Anticancer activity against human NCI-H460 cells assessed as cell growth inhibition at 10 uM incubated for 48 hrs by SRB assay relative to control; type: functional; details: read-out: GI
OVCAR-4 = experiment: Anticancer activity against human OVCAR-4 cells assessed as cell growth inhibition at 10 uM incubated for 48 hrs by SRB assay relative to control; type: functional; details: read-out: GI
Hs-578T = experiment: Anticancer activity against human Hs-578T cells assessed as cell growth inhibition at 10 uM incubated for 48 hrs by SRB assay relative to control; type: functional; details: read-out: GI
HOP-62 = experiment: Anticancer activity against human HOP-62 cells assessed as cell growth inhibition at 10 uM incubated for 48 hrs by SRB assay relative to control; type: functional; details: read-out: GI
NCI-H23 = experiment: Anticancer activity against human NCI-H23 cells assessed as cell growth inhibition at 10 uM incubated for 48 hrs by SRB assay relative to control; type: functional; details: read-out: GI
NCI-H522 = experiment: Anticancer activity against human NCI-H522 cells assessed as cell growth inhibition at 10 uM incubated for 48 hrs by SRB assay relative to control; type: functional; details: read-out: GI
OVCAR-8 = experiment: Anticancer activity against human OVCAR-8 cells assessed as cell growth inhibition at 10 uM incubated for 48 hrs by SRB assay relative to control; type: functional; details: read-out: GI
RXF 393 = experiment: Anticancer activity against human RXF 393 cells assessed as cell growth inhibition at 10 uM incubated for 48 hrs by SRB assay relative to control; type: functional; details: read-out: GI
MDA-MB-231 = experiment: Anticancer activity against human MDA-MB-231 cells assessed as cell growth inhibition at 10 uM incubated for 48 hrs by SRB assay relative to control; type: functional; details: read-out: GI
U-251 = experiment: Anticancer activity against human U-251 cells assessed as cell growth inhibition at 10 uM incubated for 48 hrs by SRB assay relative to control; type: functional; details: read-out: GI
MCF7 = experiment: Anticancer activity against human MCF7 cells assessed as cell growth inhibition at 10 uM incubated for 48 hrs by SRB assay relative to control; type: functional; details: read-out: GI
MDA-MB-468 = experiment: Anticancer activity against human MDA-MB-468 cells assessed as cell growth inhibition at 10 uM incubated for 48 hrs by SRB assay relative to control; type: functional; details: read-out: GI
786-0 = experiment: Anticancer activity against human 786-0 cells assessed as cell growth inhibition at 10 uM incubated for 48 hrs by SRB assay relative to control; type: functional; details: read-out: GI
SK-MEL-2 = experiment: Anticancer activity against human SK-MEL-2 cells assessed as cell growth inhibition at 10 uM incubated for 48 hrs by SRB assay relative to control; type: functional; details: read-out: GI
Malme-3M = experiment: Anticancer activity against human Malme-3M cells assessed as cell growth inhibition at 10 uM incubated for 48 hrs by SRB assay relative to control; type: functional; details: read-out: GI
SN12C = experiment: Anticancer activity against human SN12C cells assessed as cell growth inhibition at 10 uM incubated for 48 hrs by SRB assay relative to control; type: functional; details: read-out: GI
KM12 = experiment: Anticancer activity against human KM12 cells assessed as cell growth inhibition at 10 uM incubated for 48 hrs by SRB assay relative to control; type: functional; details: read-out: GI
SNB-75 = experiment: Anticancer activity against human SNB-75 cells assessed as cell growth inhibition at 10 uM incubated for 48 hrs by SRB assay relative to control; type: functional; details: read-out: GI

Compound | inhibition of growth at 10 µM (SNB-19) [%] | inhibition of growth at 10 µM (SF-268) [%] | inhibition of growth at 10 µM (K562) [%] | inhibition of growth at 10 µM (OVCAR-3) [%] | inhibition of growth at 10 µM (HOP-92) [%] | inhibition of growth at 10 µM (PC-3) [%] | inhibition of growth at 10 µM (TK-10) [%] | inhibition of growth at 10 µM (EKVX) [%] | inhibition of growth at 10 µM (HCT-15) [%] | inhibition of growth at 10 µM (HT-29) [%] | inhibition of growth at 10 µM (SK-MEL-5) [%] | inhibition of growth at 10 µM (RPMI-8226) [%] | inhibition of growth at 10 µM (SF-539) [%] | Ki (Carbonic anhydrase 9) [nM] | inhibition of growth at 10 µM (MOLT-4) [%] | inhibition of growth at 10 µM (UO-31) [%] | inhibition of growth at 10 µM (T47D) [%] | inhibition of growth at 10 µM (A498) [%] | inhibition of growth at 10 µM (OVCAR-5) [%] | inhibition of growth at 10 µM (COLO 205) [%] | also measured
NS(=O)(=O)c1ccc(Nc2nc(N/N=C/c3cccs3)nc(Nc3ccccc3)n2)cc1 | < 10 | 16 | 39 | 35 | 44 | 23 | < 10 | 24 | 14 | 29 | 26 | 47 | 34 | 255 | 42 | 16 | 38 | 43 | 19 | 18 | inhibition of growth at 10 µM (LOX IMVI): 32%; inhibition of growth at 10 µM (A549): 11%; inhibition of growth at 10 µM (NCI-H460): 31%; inhibition of growth at 10 µM (OVCAR-4): 29%; inhibition of growth at 10 µM (Hs-578T): 34%; inhibition of growth at 10 µM (HOP-62): 15%; inhibition of growth at 10 µM (NCI-H23): 19%; inhibition of growth at 10 µM (NCI-H522): 20%; inhibition of growth at 10 µM (OVCAR-8): 29%; inhibition of growth at 10 µM (RXF 393): 52%; inhibition of growth at 10 µM (MDA-MB-231): 53%; inhibition of growth at 10 µM (U-251): < 10%; inhibition of growth at 10 µM (MCF7): 47%; inhibition of growth at 10 µM (MDA-MB-468): 50%; inhibition of growth at 10 µM (786-0): 13%; inhibition of growth at 10 µM (SK-MEL-2): 24%; inhibition of growth at 10 µM (Malme-3M): 20%; inhibition of growth at 10 µM (SN12C): 13%; inhibition of growth at 10 µM (KM12): 44%; inhibition of growth at 10 µM (SNB-75): 16%
NS(=O)(=O)c1ccc(Nc2nc(N/N=C/c3ccc(C(F)(F)F)cc3)nc(Nc3ccccc3)n2)cc1 | 66 | 49 | 82 | 88 | 42 | 85 | 35 | 46 | 68 | 88 | 65 | 105 | 76 | 29.7 | 90 | 39 | 68 | 60 | 32 | 70 | inhibition of growth at 10 µM (LOX IMVI): 90%; inhibition of growth at 10 µM (A549): 72%; inhibition of growth at 10 µM (NCI-H460): 85%; inhibition of growth at 10 µM (OVCAR-4): 59%; inhibition of growth at 10 µM (Hs-578T): 91%; inhibition of growth at 10 µM (HOP-62): 61%; inhibition of growth at 10 µM (NCI-H23): 47%; inhibition of growth at 10 µM (NCI-H522): 62%; inhibition of growth at 10 µM (OVCAR-8): 67%; inhibition of growth at 10 µM (RXF 393): 139%; inhibition of growth at 10 µM (MDA-MB-231): 73%; inhibition of growth at 10 µM (U-251): 81%; inhibition of growth at 10 µM (MCF7): 89%; inhibition of growth at 10 µM (MDA-MB-468): 65%; inhibition of growth at 10 µM (786-0): 103%; inhibition of growth at 10 µM (SK-MEL-2): 71%; inhibition of growth at 10 µM (Malme-3M): 77%; inhibition of growth at 10 µM (SN12C): 57%; inhibition of growth at 10 µM (KM12): 78%; inhibition of growth at 10 µM (SNB-75): 58%
